Measured values as given in patent US9493446B2, “Orexin receptor antagonists which are [ortho bi-(hetero-)aryl]-[2-(meta bi-(hetero-)aryl)-pyrrolidin-1-yl]-methanone derivatives” (Actelion Pharmaceuticals Ltd, priority 2012, dated 2016).
Read-outs that look alike come from different tables or passages of the source.

Assays:
human orexin-2 receptor = human orexin-2 receptor (Homo sapiens (Human), UniProt O43614); assay: Intracellular calcium measurement (FLIPR), CHO cells expressing human orexin-2 receptor, 3 nM orexin-A; format: cell-based; details: read-out: IC50 OX2
How it was run: (§1)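 Antagonist is added 120 min before agonist. Fluo-4 AM-loaded CHO cells carry human orexin-1 or orexin-2 receptor, and calcium is read by FLIPR.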

orexin-1 = orexin-1 (Homo sapiens (Human), UniProt O43613); assay: Intracellular calcium measurement (FLIPR), CHO cells expressing human orexin-1 receptor, 3 nM orexin-A; format: cell-based; details: read-out: IC50 OX1
How it was run: as §1

[1] = CHO cells expressing human orexin-2 receptor, FLIPR, 3 nM orexin-A, geometric mean if determined several times
[2] = CHO cells expressing human orexin-1 receptor, FLIPR, 3 nM orexin-A, geometric mean if determined several times

Chain of human orexin-2 receptor (O43614 whole entry): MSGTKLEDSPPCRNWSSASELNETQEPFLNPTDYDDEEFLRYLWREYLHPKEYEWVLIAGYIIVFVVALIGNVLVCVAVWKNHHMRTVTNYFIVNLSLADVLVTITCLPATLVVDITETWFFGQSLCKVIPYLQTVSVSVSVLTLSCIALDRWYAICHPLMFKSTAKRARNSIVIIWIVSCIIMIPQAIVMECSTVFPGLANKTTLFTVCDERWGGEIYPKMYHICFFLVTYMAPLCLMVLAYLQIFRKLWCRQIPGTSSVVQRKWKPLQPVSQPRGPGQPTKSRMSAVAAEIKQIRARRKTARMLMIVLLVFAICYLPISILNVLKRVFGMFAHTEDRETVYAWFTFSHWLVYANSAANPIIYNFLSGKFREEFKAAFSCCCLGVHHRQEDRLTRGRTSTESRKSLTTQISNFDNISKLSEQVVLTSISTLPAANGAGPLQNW
Chain of orexin-1 (O43613 whole entry): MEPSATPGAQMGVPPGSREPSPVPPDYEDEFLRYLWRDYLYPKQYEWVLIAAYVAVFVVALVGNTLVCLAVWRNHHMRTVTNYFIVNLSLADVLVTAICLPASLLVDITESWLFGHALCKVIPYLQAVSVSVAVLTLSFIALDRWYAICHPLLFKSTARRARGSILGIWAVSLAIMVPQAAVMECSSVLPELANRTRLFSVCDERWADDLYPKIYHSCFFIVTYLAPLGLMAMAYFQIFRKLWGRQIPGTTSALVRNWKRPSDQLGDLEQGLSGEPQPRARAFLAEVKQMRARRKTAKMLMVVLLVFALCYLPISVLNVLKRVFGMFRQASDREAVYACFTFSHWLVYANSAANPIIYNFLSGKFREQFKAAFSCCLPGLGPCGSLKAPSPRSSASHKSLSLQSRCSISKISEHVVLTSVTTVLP

## COc1cc(C(=O)N2CCC[C@H]2c2nc(-c3ccccc3OC)no2)c(-n2nccn2)cc1C [compound 231, (5-Methoxy-4-methyl-2-[1,2,3]triazol-2-yl-phenyl)-{(S)-2-[3-(2-methoxy-phenyl)-[1,2,4]oxadiazol-5-yl]-pyrrolidin-1-yl}-methanone]
Human orexin-2 receptor; [1]
  IC50: 0.015 µM
orexin-1; [2]
  IC50: 0.066 µM

## COc1ccc(-n2nccn2)c(C(=O)N2CCC[C@H]2c2nc(-c3ccccc3OC)no2)c1 [compound 232, {(S)-2-[3-(2-Methoxy-phenyl)-[1,2,4]oxadiazol-5-yl]-pyrrolidin-1-yl}-(5-methoxy-2-[1,2,3]triazol-2-yl-phenyl)-methanone]
Human orexin-2 receptor; [1]
  IC50: 0.078 µM
orexin-1; [2]
  IC50: 0.134 µM

## COc1ccccc1-c1noc([C@@H]2CCCN2C(=O)c2cc(F)ccc2-n2nccn2)n1 [compound 233, (5-Fluoro-2-[1,2,3]triazol-2-yl-phenyl)-{(S)-2-[3-(2-methoxy-phenyl)-[1,2,4]oxadiazol-5-yl]-pyrrolidin-1-yl}-methanone]
Human orexin-2 receptor; [1]
  IC50: 0.341 µM
orexin-1; [2]
  IC50: 1.41 µM

## COc1ccccc1-c1noc([C@@H]2CCCN2C(=O)c2nc(C)ccc2-n2nccn2)n1 [compound 235, {(S)-2-[3-(2-Methoxy-phenyl)-[1,2,4]oxadiazol-5-yl]-pyrrolidin-1-yl}-(6-methyl-3-[1,2,3]triazol-2-yl-pyridin-2-yl)-methanone]
Human orexin-2 receptor; [1]
  IC50: 0.992 µM
orexin-1; [2]
  IC50: 0.361 µM

## O=C(c1cc(Cl)ccc1-n1nccn1)N1CCC[C@H]1c1nc(-c2ccccc2Cl)no1 [compound 236]
Human orexin-2 receptor
  IC50: 0.15 µM
orexin-1; [2]
  IC50: 1.85 µM

## Cc1ccc(C(=O)N2CCC[C@H]2c2nc(-c3ccccc3Cl)no2)c(-n2nccn2)c1 [compound 237]
Human orexin-2 receptor; [1]
  IC50: 0.186 µM
orexin-1; [2]
  IC50: 0.844 µM

## Cc1cc(C(=O)N2CCC[C@H]2c2nc(-c3ccccc3Cl)no2)c(-n2nccn2)cc1C [compound 238]
Human orexin-2 receptor; [1]
  IC50: 0.016 µM
orexin-1; [2]
  IC50: 0.104 µM

## COc1cc(C(=O)N2CCC[C@H]2c2nc(-c3ccccc3Cl)no2)c(-n2nccn2)cc1C [compound 239]
Human orexin-2 receptor; [1]
  IC50: 0.024 µM
orexin-1
  IC50: 0.378 µM

## COc1ccc(-n2nccn2)c(C(=O)N2CCC[C@H]2c2nc(-c3ccccc3Cl)no2)c1 [compound 240]
Human orexin-2 receptor; [1]
  IC50: 0.147 µM
orexin-1; [2]
  IC50: 1.33 µM

## Cc1ccc(-n2nccn2)c(C(=O)N2CCC[C@H]2c2nc(-c3ccccc3Cl)no2)n1 [compound 242]
Human orexin-2 receptor; [1]
  IC50: 1.44 µM
orexin-1; [2]
  IC50: 4.36 µM

## O=C(c1ccccc1-n1nccn1)N1CCC[C@H]1c1nc(-c2ccccc2Cl)no1 [compound 243]
Human orexin-2 receptor
  IC50: 0.312 µM
orexin-1
  IC50: 2.68 µM

## Cc1c(F)cccc1-c1noc([C@@H]2CCCN2C(=O)c2ccccc2-n2nccn2)n1 [compound 244, {(S)-2-[3-(3-Fluoro-2-methyl-phenyl)-[1,2,4]oxadiazol-5-yl]-pyrrolidin-1-yl}-(2-[1,2,3]triazol-2-yl-phenyl)-methanone]
Human orexin-2 receptor; [1]
  IC50: 0.018 µM
orexin-1; [2]
  IC50: 0.306 µM

## Cc1c(F)cccc1-c1noc([C@@H]2CCCN2C(=O)c2cc(Cl)ccc2-n2nccn2)n1 [compound 245]
Human orexin-2 receptor; [1]
  IC50: 0.021 µM
orexin-1
  IC50: 0.262 µM

## Cc1ccc(C(=O)N2CCC[C@H]2c2nc(-c3cccc(F)c3C)no2)c(-n2nccn2)c1 [compound 246, {(S)-2-[3-(3-Fluoro-2-methyl-phenyl)-[1,2,4]oxadiazol-5-yl]-pyrrolidin-1-yl}-(4-methyl-2-[1,2,3]triazol-2-yl-phenyl)-methanone]
Human orexin-2 receptor; [1]
  IC50: 0.014 µM
orexin-1; [2]
  IC50: 0.135 µM

## Cc1cc(C(=O)N2CCC[C@H]2c2nc(-c3cccc(F)c3C)no2)c(-n2nccn2)cc1C [compound 247, (4,5-Dimethyl-2-[1,2,3]triazol-2-yl-phenyl)-{(S)-2-[3-(3-fluoro-2-methyl-phenyl)-[1,2,4]oxadiazol-5-yl]-pyrrolidin-1-yl}-methanone]
Human orexin-2 receptor; [1]
  IC50: 0.003 µM
orexin-1; [2]
  IC50: 0.017 µM

## COc1ccc(-n2nccn2)c(C(=O)N2CCC[C@H]2c2nc(-c3cccc(F)c3C)no2)c1 [compound 249, {(S)-2-[3-(3-Fluoro-2-methyl-phenyl)-[1,2,4]oxadiazol-5-yl]-pyrrolidin-1-yl}-(5-methoxy-2-[1,2,3]triazol-2-yl-phenyl)-methanone]
Human orexin-2 receptor; [1]
  IC50: 0.008 µM
orexin-1; [2]
  IC50: 0.151 µM

## Cc1c(F)cccc1-c1noc([C@@H]2CCCN2C(=O)c2cc(F)ccc2-n2nccn2)n1 [compound 250, {(S)-2-[3-(3-Fluoro-2-methyl-phenyl)-[1,2,4]oxadiazol-5-yl]-pyrrolidin-1-yl}-(5-fluoro-2-[1,2,3]triazol-2-yl-phenyl)-methanone]
Human orexin-2 receptor; [1]
  IC50: 0.038 µM
orexin-1; [2]
  IC50: 0.489 µM

## Cc1cccc(C(=O)N2CCC[C@H]2c2nc(-c3cccc(F)c3C)no2)c1-n1nccn1 [compound 251, {(S)-2-[3-(3-Fluoro-2-methyl-phenyl)-[1,2,4]oxadiazol-5-yl]-pyrrolidin-1-yl}-(3-methyl-2-[1,2,3]triazol-2-yl-phenyl)-methanone]
Human orexin-2 receptor; [1]
  IC50: 0.09 µM
orexin-1; [2]
  IC50: 0.626 µM

## Cc1c(F)cccc1-c1noc([C@@H]2CCCN2C(=O)c2cccc(F)c2-c2ccn[nH]2)n1 [compound 253, {(S)-2-[3-(3-Fluoro-2-methyl-phenyl)-[1,2,4]oxadiazol-5-yl]-pyrrolidin-1-yl}-[3-fluoro-2-(2H-pyrazol-3-yl)-phenyl]-methanone]
Human orexin-2 receptor; [1]
  IC50: 0.005 µM
orexin-1; [2]
  IC50: 0.174 µM

## CCOc1ccccc1-c1noc([C@@H]2CCCN2C(=O)c2cccc(F)c2-c2ccn[nH]2)n1 [compound 254, {(S)-2-[3-(2-Ethoxy-phenyl)-[1,2,4]oxadiazol-5-yl]-pyrrolidin-1-yl}-[3-fluoro-2-(2H-pyrazol-3-yl)-phenyl]-methanone]
Human orexin-2 receptor; [1]
  IC50: 0.02 µM
orexin-1; [2]
  IC50: 0.069 µM

## CCOc1ccccc1-c1noc([C@@H]2CCCN2C(=O)c2cc(Cl)ccc2-n2nccn2)n1 [compound 255]
Human orexin-2 receptor; [1]
  IC50: 0.008 µM
orexin-1; [2]
  IC50: 0.036 µM

## CCOc1ccccc1-c1noc([C@@H]2CCCN2C(=O)c2ccc(C)cc2-n2nccn2)n1 [compound 256, {(S)-2-[3-(2-Ethoxy-phenyl)-[1,2,4]oxadiazol-5-yl]-pyrrolidin-1-yl}-(4-methyl-2-[1,2,3]triazol-2-yl-phenyl)-methanone]
Human orexin-2 receptor; [1]
  IC50: 0.02 µM
orexin-1; [2]
  IC50: 0.043 µM

## CCOc1ccccc1-c1noc([C@@H]2CCCN2C(=O)c2cc(C)c(C)cc2-n2nccn2)n1 [compound 257, (4,5-Dimethyl-2-[1,2,3]triazol-2-yl-phenyl)-{(S)-2-[3-(2-ethoxy-phenyl)-[1,2,4]oxadiazol-5-yl]-pyrrolidin-1-yl}-methanone]
Human orexin-2 receptor; [1]
  IC50: 0.001 µM
orexin-1; [2]
  IC50: 0.004 µM

## CCOc1ccccc1-c1noc([C@@H]2CCCN2C(=O)c2cc(OC)c(C)cc2-n2nccn2)n1 [compound 258, {(S)-2-[3-(2-Ethoxy-phenyl)-[1,2,4]oxadiazol-5-yl]-pyrrolidin-1-yl}-(5-methoxy-4-methyl-2-[1,2,3]triazol-2-yl-phenyl)-methanone]
Human orexin-2 receptor; [1]
  IC50: 0.004 µM
orexin-1; [2]
  IC50: 0.027 µM

## CCOc1ccccc1-c1noc([C@@H]2CCCN2C(=O)c2nc(C)ccc2-n2nccn2)n1 [compound 259, {(S)-2-[3-(2-Ethoxy-phenyl)-[1,2,4]oxadiazol-5-yl]-pyrrolidin-1-yl}-(6-methyl-3-[1,2,3]triazol-2-yl-pyridin-2-yl)-methanone]
Human orexin-2 receptor; [1]
  IC50: 0.099 µM
orexin-1; [2]
  IC50: 0.352 µM

## CCOc1ccccc1-c1noc([C@@H]2CCCN2C(=O)c2ccccc2-n2nccn2)n1 [compound 260, {(S)-2-[3-(2-Ethoxy-phenyl)-[1,2,4]oxadiazol-5-yl]-pyrrolidin-1-yl}-(2-[1,2,3]triazol-2-yl-phenyl)-methanone]
Human orexin-2 receptor; [1]
  IC50: 0.063 µM
orexin-1; [2]
  IC50: 0.392 µM

## CCOc1ccccc1-c1noc([C@@H]2CCCN2C(=O)c2cc(OC)ccc2-n2nccn2)n1 [compound 261, {(S)-2-[3-(2-Ethoxy-phenyl)-[1,2,4]oxadiazol-5-yl]-pyrrolidin-1-yl}-(5-methoxy-2-[1,2,3]triazol-2-yl-phenyl)-methanone]
Human orexin-2 receptor; [1]
  IC50: 0.009 µM
orexin-1; [2]
  IC50: 0.026 µM

## CCOc1ccccc1-c1noc([C@@H]2CCCN2C(=O)c2cccc(C)c2-n2nccn2)n1 [compound 262, {(S)-2-[3-(2-Ethoxy-phenyl)-[1,2,4]oxadiazol-5-yl]-pyrrolidin-1-yl}-(3-methyl-2-[1,2,3]triazol-2-yl-phenyl)-methanone]
Human orexin-2 receptor; [1]
  IC50: 0.145 µM
orexin-1; [2]
  IC50: 1.11 µM

## CCOc1ccccc1-c1noc([C@@H]2CCCN2C(=O)c2cc(F)ccc2-n2nccn2)n1 [compound 263, {(S)-2-[3-(2-Ethoxy-phenyl)-[1,2,4]oxadiazol-5-yl]-pyrrolidin-1-yl}-(5-fluoro-2-[1,2,3]triazol-2-yl-phenyl)-methanone]
Human orexin-2 receptor; [1]
  IC50: 0.105 µM
orexin-1; [2]
  IC50: 0.505 µM

## Cc1c(Cl)cccc1-c1noc([C@@H]2CCCN2C(=O)c2cc(Cl)ccc2-n2nccn2)n1 [compound 264]
Human orexin-2 receptor
  IC50: 0.014 µM
orexin-1; [2]
  IC50: 0.165 µM

## COc1ccc(-n2nccn2)c(C(=O)N2CCC[C@H]2c2nc(-c3cccc(Cl)c3C)no2)c1F [compound 265]
Human orexin-2 receptor; [1]
  IC50: 0.076 µM
orexin-1; [2]
  IC50: 0.112 µM

## Cc1ccc(-n2nccn2)c(C(=O)N2CCC[C@H]2c2nc(-c3cccc(Cl)c3C)no2)c1F [compound 266]
Human orexin-2 receptor
  IC50: 0.014 µM
orexin-1
  IC50: 0.115 µM

## Cc1noc(-c2ccccc2C(=O)N2CCC[C@H]2c2nc(-c3cccc(Cl)c3C)no2)n1 [compound 267]
Human orexin-2 receptor; [1]
  IC50: 0.177 µM
orexin-1; [2]
  IC50: 0.501 µM

## Cc1c(Cl)cccc1-c1noc([C@@H]2CCCN2C(=O)c2ccccc2-c2ccccc2)n1 [compound 268]
Human orexin-2 receptor; [1]
  IC50: 0.031 µM
orexin-1; [2]
  IC50: 0.233 µM

## COc1cc(C(=O)N2CCC[C@H]2c2nc(-c3cccc(Cl)c3C)no2)c(-c2ncccn2)cc1C [compound 269]
Human orexin-2 receptor; [1]
  IC50: 0.012 µM
orexin-1; [2]
  IC50: 0.177 µM

## Cc1ccc(-n2nccn2)c(C(=O)N2CCC[C@H]2c2nc(-c3cccc(OC(F)(F)F)c3)no2)c1 [compound 270, (5-Methyl-2-[1,2,3]triazol-2-yl-phenyl)-{(S)-2-[3-(3-trifluoromethoxy-phenyl)-[1,2,4]oxadiazol-5-yl]-pyrrolidin-1-yl}-methanone]
Human orexin-2 receptor; [1]
  IC50: 0.032 µM
orexin-1; [2]
  IC50: 0.282 µM
